The text below walks through data of US8173643B2, “N-substituted thiomorpholine derivatives as the inhibitors of dipeptidyl peptidase IV and the pharmaceutical uses thereof” (Beijing Molecule Science and Technology Co., Ltd., priority 2007, dated 2012).

Counter-ions that a name gives are not always drawn.

One series concerns the target T1, DPP-IV (Homo sapiens, UniProt P27487).
T1 construct: endogenous in cells; host or cells: Caco-2 (human colon carcinoma), differentiated; NP-40 lysate, 35000 g supernatant
Put plainly: Determination of DPP-IV inhibitory activity and IC50 (enzyme from Caco-2 cell lysate, absorbance at 405 nm). It counts as biochemical. The settings on record: for inhibition at 0.1 µM: Concentration 100 nM; for inhibition at 0.3 µM: Concentration 300 nM. The protocol:
Cultivation of human colon carcinoma cell-line cells (Caco-2): Caco-2 cells were cultivated in a culture medium of DMEM (high glucose, containing 10% fetal bovine serum, 1% NAA), and the cell lines were passaged in a proportion of 1:1 or 1:2; after nearly reaching confluence, the cells were further cultivated for 2-3 weeks, while changing the medium once every 2-3 days.
Preparation of DPP-IV: the cells were washed with a pre-cooled PBS for 2-3 times, and 0.5-1 ml ice-cold 10 mM Tris-HCl (containing 0.15 M NaCl, 0.04 t.i.u aprotinin, 0.5% nonionic detergent P40, pH 8) was added to each culture bottle to lysate the cells, followed by collecting them in a centrifuge tube. After centrifugation at 4° C., 35000 g for […], the obtained supernatant was collected, and subjected to a protein content detection, and then stored in a low temperature refrigerator.
The test groups included enzyme control group, substrate control group, enzyme reaction control group, and compound group, and the test was carried out in a 96-pore plate, using 150 μL reaction system. In the 96-pore plate, a diluted test compound was added in the compound group, 30 μL/pore; 20 μL DPP-IV solution was added in the enzyme control group, as well as in the compound group; an analytic buffer (25 mM Tris-HCl pH 7.4, containing 140 mM NaCl, 10 mM KCl, 1% bovine serum albumin) was added in 130 μL to the enzyme control group, in 125 μL to the substrate control group, in 105 μL to the enzyme reaction control group, and in 75 μL to the compound group; and then 25 μL substrate (1 mM) was added, followed by reacting at room temperature for 10 min. No substrate was added in the enzyme control group. After reacting for 10 min, 25% glacial acetic acid was added in 19 μL/pore to terminate the reaction. The absorbance was determined by using an enzyme calibrating apparatus at a wavelength of 405 nm.

The test system of the next series is obese mouse. Particulars: 10 mg/kg, 2 times/d, long-term treatment; cited from earlier work.
For series [1], the system named is streptozotocin-induced DM male mouse. Particulars: 2 times/d, after 7 weeks; cited from earlier work.
The conditions of series [2]: pig, in vivo, cited from earlier work.

T1 sequence (P27487 whole entry): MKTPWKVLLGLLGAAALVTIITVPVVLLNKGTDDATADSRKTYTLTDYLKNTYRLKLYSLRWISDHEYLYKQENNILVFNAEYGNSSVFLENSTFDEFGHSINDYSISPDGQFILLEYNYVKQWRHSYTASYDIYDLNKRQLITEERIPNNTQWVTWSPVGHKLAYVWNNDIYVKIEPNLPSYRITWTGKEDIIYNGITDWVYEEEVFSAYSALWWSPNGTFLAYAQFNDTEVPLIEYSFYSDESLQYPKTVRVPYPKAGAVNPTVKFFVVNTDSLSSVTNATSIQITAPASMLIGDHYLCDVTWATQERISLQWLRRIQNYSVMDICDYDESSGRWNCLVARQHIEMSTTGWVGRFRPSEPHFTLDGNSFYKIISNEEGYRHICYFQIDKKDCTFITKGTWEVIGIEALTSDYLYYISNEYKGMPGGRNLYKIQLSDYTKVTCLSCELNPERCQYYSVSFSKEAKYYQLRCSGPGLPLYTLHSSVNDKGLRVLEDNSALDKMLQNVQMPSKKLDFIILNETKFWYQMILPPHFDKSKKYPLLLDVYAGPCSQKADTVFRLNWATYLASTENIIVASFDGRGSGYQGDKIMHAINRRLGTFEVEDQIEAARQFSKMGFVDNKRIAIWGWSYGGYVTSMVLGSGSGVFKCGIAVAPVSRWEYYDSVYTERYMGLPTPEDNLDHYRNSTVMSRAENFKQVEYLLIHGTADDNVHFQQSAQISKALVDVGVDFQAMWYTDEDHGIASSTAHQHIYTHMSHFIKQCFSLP

Take `CC(C)[C@@H](N)C(=O)N1CCSC[C@H]1C#N` (stereo in doubt) [Compound 1, (R)-3-cyano-4-(2-amino-3-methyl-butyryl)thiomorpholine hydrochloride]: at DPP-IV (Concentration 10 nM, read-out: Inhibitory rate(%)), the inhibition at 0.01 µM was 7.65 ± 0.68%. Besides, the inhibition at 0.03 µM at DPP-IV (Concentration 30 nM, read-out: Inhibitory rate(%)) stood at 13.2 ± 1.92%. Also, at DPP-IV (read-out: Inhibitory rate(%)), the inhibition at 0.1 µM worked out at 40.3 ± 3.09% and the inhibition at 0.3 µM was 73 ± 1.74%. Moreover, the inhibition at 1 µM at DPP-IV (Concentration 1000 nM, read-out: Inhibitory rate(%)) is 101 ± 1.36%. For the same compound, the 50% inhibitory concentration (IC50) on DPP-IV (DPP-IV from Caco-2 cells) came out at 189 ± 26.4 nM.

With `CC(C)C[C@@H](N)C(=O)N1CCSC[C@H]1C#N` [Compound 2, (R)-3-cyano-4-(2-amino-4-methyl-pentanoyl)thiomorpholine hydrochloride], at DPP-IV (read-out: Inhibitory rate(%)), the inhibition at 0.1 µM came out at 24.1 ± 2.41% and the inhibition at 0.3 µM amounted to 47.2 ± 0.64%.

As to `CC(C)(C)[C@H](N)C(=O)N1CCC[C@H]1C#N` [FE 999011], the “postponement of the occurrence of hyperglycemia” value in the series with obese mouse was 21 days.

In the case of `CC[C@H](C)[C@H](N)C(=O)N1CCSC1` [P32/98], in series [1], the “fraction of islet β cells increased, as compared with the control group” value is listed as 12%; the “number of islets increased, as compared with the control group” value is recorded as 35%; the “number of overall β cells increased, as compared with the control group” value is reported as 120%; the plasma insulin level result is “approaching to normal”.

Take “GIP: gastric inhibitory peptide, an incretin secreted by K cells, substrate of DPP-IV”: the “immunocompetence of intact GIP shown by radioimmunoassay” value in series [2] (iv) is recorded as 14.5%. Also, the “immunocompetence of GIP” value in series [2] is given as 49%.
